The results in this text go back to PubChem BioAssay AID850 (SRMLSC, 2007).

As a reminder, the IC50 is the point on the concentration scale where inhibition reaches its midpoint. In general, inhibition refers to the drop in the measured response relative to a control, in per cent.

SMILES strings stand for the structures. The source made the active and inactive calls. No rule for the calls is given here.

Assay [1] has as its system Saccharomyces cerevisiae growth inhibition, permissive control. Briefly: concentration-response yeast growth inhibition under permissive conditions, counter-assay for yeast lifespan-shortening chemical project (AID 850).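 Also: growth read as optical density after one day of incubation.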
Assay in assay [2]: as above
The following applies: Saccharomyces cerevisiae growth inhibition, permissive control, measured here: maximum growth inhibition, stronger effect = higher value.

Turning to `O=C(CCSc1nnc(-c2ccncc2)o1)Nc1ccc(Cl)cc1`, in assay [1], the IC50 is 8.46 µM. For the same compound, in assay [2] (at 12.5 µM), the inhibition came out at 86.9%.

Regarding `COc1cc(/C=N/N(C)c2ccccc2)cc(Cl)c1O`, the IC50 in assay [1] was > 100 µM (inactive). Besides, the inhibition in assay [2] (at 1.563 µM) turned out to be 14.6%.

`Cc1ccc(C(=O)Oc2ccc(Cl)c3cccnc23)cc1[N+](=O)[O-]`: in assay [1], the IC50 was 40.6 µM. In addition, the inhibition in assay [2] (at 50 µM) came to 73.3%.

For the compound `c1ccc(N(c2ccccc2)c2nc(-n3ccnc3)nc(-n3ccnc3)n2)cc1`, the IC50 in assay [1] is 37.6 µM. For the same compound, the inhibition in assay [2] (at 50 µM) is 62.1%.

With `CC(C)CN=Cc1c(O)c([N+](=O)[O-])cc2oc3c(c12)CCCC3`, in assay [1], the concentration for half-maximal inhibition (IC50) was 41 µM. Besides, in assay [2] (at 50 µM), the inhibition is 60.1%.

As to `O=c1[nH]c2ccccc2c2nc3ccccn3c12`, the IC50 in assay [1] was > 100 µM (inactive). The inhibition in assay [2] (at 25 µM) was 18.1%.

As for `C=C(C)COc1ccc(-c2[nH]ncc2Oc2cccc(OC)c2)c(O)c1`, in assay [1], the IC50 is > 100 µM (inactive). The inhibition in assay [2] (at 12.5 µM) came to 20.1%.

With `c1cncc(-c2nnc(-c3cccnc3)nn2)c1`, the IC50 in assay [1] is 26.3 µM. Also, the inhibition in assay [2] (at 50 µM) came to 90.5%.

As for `Cc1nc2ccc(NC(=O)c3cc([N+](=O)[O-])cc([N+](=O)[O-])c3Cl)cc2s1`, the half-maximal inhibitory concentration (IC50) in assay [1] was 15.2 µM. Further, the inhibition in assay [2] (at 50 µM) came out at 98.4%.

Take `Nc1nc2sc3c(c2c(=O)s1)CCCC3`: in assay [1], the IC50 was > 100 µM (inactive). Further, in assay [2] (at 0.195 µM), the inhibition was 24.4%.

In the case of `CCOc1cc(N2CCOCC2)c(OCC)cc1NC(=O)COc1cccc2cccnc12`, in assay [1], the IC50 is > 100 µM (inactive). The inhibition in assay [2] (at 0.098 µM) was found to be 11.3%.

Turning to `CCOC(=O)c1c(/N=C/c2cc([N+](=O)[O-])ccc2O)sc(C)c1C`, in assay [1], the 50% inhibitory concentration (IC50) is 39.9 µM. In assay [2] (at 25 µM), the inhibition worked out at 52.7%.

Turning to `Cc1cccc(N=C2Sc3nc4c(C)c(C)ccc4cc3CN2CCN2CCOCC2)c1`, the IC50 in assay [1] was 45.1 µM. The inhibition in assay [2] (at 50 µM) was 99%.

Consider `O=C1C(=O)c2c(C(=O)c3ccccc3)coc2-c2ccccc21`, for which the IC50 in assay [1] was 10.3 µM. For the same compound, in assay [2] (at 50 µM), the inhibition was determined as 99.6%.

For the compound `COc1ccc(/C=C/C(=O)c2cc(Br)ccc(=O)c2O)cc1`, the IC50 in assay [1] is 16.1 µM. In assay [2] (at 50 µM), the inhibition is 93.6%.

Turning to `N#C/C(=N/O)c1nc(-c2ccc(F)cc2)cs1`, the IC50 in assay [1] was 15.9 µM. For the same compound, the inhibition in assay [2] (at 50 µM) worked out at 78.8%.

For the compound `O=C(Nc1nc(-c2ccccn2)cs1)C1COc2ccccc2O1` (stereo unspecified), the half-inhibitory concentration (IC50) in assay [1] is 11.6 µM. In addition, in assay [2] (at 50 µM), the inhibition came out at 95.2%.

On to `Cc1[nH]n(-c2ccccc2)c(=O)c1/C=N/Nc1nncc(-c2ccccc2)n1`, for which, in assay [1], the IC50 is 20.7 µM. For the same compound, the inhibition in assay [2] (at 50 µM) worked out at 98.7%.

Consider `O=C1C2C3C=CC(CO)(O3)C2C(=O)N1c1ccccc1-c1ccccc1` (stereo unspecified), for which the IC50 in assay [1] was > 100 µM (inactive). Moreover, the inhibition in assay [2] (at 6.25 µM) was 19.9%.

With `Cc1ccc2nc3c(nc2c1)-c1ccccc1C3=O`, the IC50 in assay [1] is > 100 µM (inactive). For the same compound, the inhibition in assay [2] (at 50 µM) stood at 17%.

Regarding `CN(C)CCNC=C(C(=O)Nc1ccc(Cl)cc1Cl)C(=O)Nc1ccc(Cl)cc1Cl`, the IC50 in assay [1] is 18.6 µM. Moreover, the inhibition in assay [2] (at 25 µM) came out at 101%.

Take `CCOc1cc(/C=N/Nc2ccccc2Cl)ccc1OCC(=O)O`: the IC50 in assay [1] was 9.2 µM. The inhibition in assay [2] (at 50 µM) was determined as 99%.

Consider `CCc1cccc(C)c1NC(=S)NCCc1c(C)[nH]c2ccc(C)cc12`, for which, in assay [1], the IC50 was > 100 µM (inactive). Moreover, the inhibition in assay [2] (at 50 µM) worked out at 8.58%.

With `O=S(=O)(NC1CC2CCC1C2)c1ccc(Br)s1` (stereo unspecified), the IC50 in assay [1] is 1.28 µM. Further, in assay [2] (at 12.5 µM), the inhibition was found to be 99%.

As for `COc1ccc(OC)c(C2CC(=O)N3CN(c4cccc(Cl)c4)CSC3=C2C#N)c1` (stereo unspecified), in assay [1], the IC50 was > 100 µM (inactive). Moreover, the inhibition in assay [2] (at 25 µM) is 15.2%.

With `Cc1nnc(NC(=O)CSc2nnc(Cc3cccn3C)n2-c2ccccc2)s1`, in assay [1], the IC50 was > 100 µM (inactive). Further, the inhibition in assay [2] (at 0.781 µM) was determined as 11.8%.

Consider `O=C(O)CCSc1nnc(-c2ccccc2)n1-c1ccccc1`, for which, in assay [1], the IC50 was > 100 µM (inactive). For the same compound, the inhibition in assay [2] (at 1.563 µM) is 15.8%.

For the compound `Cc1cc(=O)[nH]c(SCc2nc3ccccc3s2)n1`, the IC50 in assay [1] was > 100 µM (inactive). Further, in assay [2] (at 25 µM), the inhibition is 13%.

`CC1(C)C[C@H]2C=C(C=O)[C@]3(C=O)C[C@]3(C)[C@H]2C1`: in assay [1], the IC50 was 4.38 µM. The inhibition in assay [2] (at 50 µM) amounted to 100%.

In the case of `Cc1ccc(NN2C(=O)C=C(c3ccc(Cl)cc3)C2=O)cc1`, the concentration for half-maximal inhibition (IC50) in assay [1] was 9.53 µM. Moreover, the inhibition in assay [2] (at 50 µM) was found to be 98%.

As to `CCOC(=O)c1c(-c2ccc(-c3ccccc3)cc2)csc1NC(=O)CCN1CCOCC1`, the IC50 in assay [1] is 15.5 µM. Also, the inhibition in assay [2] (at 50 µM) amounted to 94.6%.

In the case of `c1ccc(-c2nnc(-c3ccccn3)nc2NC2CCCCC2)cc1`, the IC50 in assay [1] was 12.6 µM. In addition, in assay [2] (at 50 µM), the inhibition stood at 99.6%.

For `Cc1ccc(-c2cc(-c3ccccc3Cl)[nH]n2)c(O)c1`, the IC50 in assay [1] is > 100 µM (inactive). In addition, the inhibition in assay [2] (at 0.781 µM) turned out to be 16.4%.
